From publication PMC6920875, “Dithiocarbamate as a Valuable Scaffold for the Inhibition of Metallo-β-Lactmases” (Biomolecules, 2019)
Where a name gives a salt, the structure may show the parent alone.

How the values were obtained:
[1] = tested on: C[C@@H](O)[C@H]1C(=O)N2C(C(=O)O)=C(SCCN=CN)C[C@H]12; experiment: purified protein, by the assay type; conditions: other: test conditions: 30 mM Tris pH 7.0, 25 °C
VIM-2 = target: T1, VIM-2 (Escherichia coli, UniProt Q5U7L7); type: biochemical; conditions: read-out: IC50 against VIM-2; substrate cefazolin 40 µM, 30 mM Tris pH 7.0, 25 °C, 5 min pre-incubation, inhibitor up to 200 μM
T1 construct: made in house; host or cells: E. coli BL21 (DE3), plasmid pET24a-VIM-2
Protocol: (§1) The dithiocarbamates, MβLs and substrates samples were prepared with 30 mM Tris, pH 7.0. […] Enzymes and inhibitors were pre-incubated for 5 min before adding substrate. […] The IC50 values were nonlinearly fitted by plotting the average percentage inhibition against inhibitor concentration. The inhibition modes of DC1 to ImiS, NDM-1 and L1 were assayed by generating Lineweaver–Burk plots, and Ki values were obtained by fitting initial velocity versus substrate concentration at each inhibitor concentration, using SigmaPlot 12.0 (Systat Software Inc., San Jose, CA, USA).
(§2) To evaluate the inhibitory activity of the dithiocarbamates, we over-expressed and purified MβLs NDM-1, VIM-2 and IMP-1 (B1), ImiS (B2), and L1 (B3) from three subclasses as previously reported. The inhibition experiments were performed with an Agilent UV8453 spectrometer. […] The concentrations of inhibitors were varied between 0 and 200 μM. The initial reaction rates were determined in the absence and presence of inhibitors in triplicate, and the generated average values were recorded.

ImiS = target: T2, ImiS (Aeromonas veronii, UniProt O31272); experiment: biochemical; parameters: species or system Aeromonas veronii bv. sobria; conditions: read-out: IC50 against ImiS; substrate imipenem 40 µM, 30 mM Tris pH 7.0, 25 °C, 5 min pre-incubation, inhibitor up to 200 μM
T2 construct: made in house; host or cells: E. coli BL21 (DE3), plasmid pET-26b-ImiS
T2 sequence (O31272 28-255 limits assumed): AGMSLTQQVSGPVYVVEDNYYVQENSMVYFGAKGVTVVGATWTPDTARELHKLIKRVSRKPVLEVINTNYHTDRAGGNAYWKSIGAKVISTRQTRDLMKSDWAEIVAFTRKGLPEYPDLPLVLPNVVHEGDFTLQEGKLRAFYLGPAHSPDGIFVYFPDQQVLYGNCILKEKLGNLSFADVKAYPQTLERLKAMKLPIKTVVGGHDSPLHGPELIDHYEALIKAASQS
Protocol: as §1, §2

NDM-1 [2] = target: T3, NDM-1 (Klebsiella pneumoniae, UniProt C7C422); experiment: biochemical; conditions: read-out: IC50 against NDM-1; substrate cefazolin 40 µM, 30 mM Tris pH 7.0, 25 °C, 5 min pre-incubation, inhibitor up to 200 μM
T3 construct: made in house; host or cells: E. coli BL21 (DE3), plasmid pET26b-NDM-1
T3 sequence (C7C422 29-270 limits assumed): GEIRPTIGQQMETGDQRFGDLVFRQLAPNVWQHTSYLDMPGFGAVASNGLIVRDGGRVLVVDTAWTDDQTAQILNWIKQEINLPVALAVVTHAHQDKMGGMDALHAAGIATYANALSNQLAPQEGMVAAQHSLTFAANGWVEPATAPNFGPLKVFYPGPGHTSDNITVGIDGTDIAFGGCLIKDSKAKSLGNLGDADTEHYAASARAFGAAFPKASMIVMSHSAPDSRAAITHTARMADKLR
Protocol: as §1, §2

L1 = target: T4, L1 (Stenotrophomonas maltophilia, UniProt P52700); experiment: biochemical; conditions: read-out: IC50 against L1; substrate cefazolin 40 µM, 30 mM Tris pH 7.0, 25 °C, 5 min pre-incubation, inhibitor up to 200 μM
T4 construct: made in house; host or cells: E. coli BL21 (DE3), plasmid pET-26b-L1
T4 sequence (P52700 34-290): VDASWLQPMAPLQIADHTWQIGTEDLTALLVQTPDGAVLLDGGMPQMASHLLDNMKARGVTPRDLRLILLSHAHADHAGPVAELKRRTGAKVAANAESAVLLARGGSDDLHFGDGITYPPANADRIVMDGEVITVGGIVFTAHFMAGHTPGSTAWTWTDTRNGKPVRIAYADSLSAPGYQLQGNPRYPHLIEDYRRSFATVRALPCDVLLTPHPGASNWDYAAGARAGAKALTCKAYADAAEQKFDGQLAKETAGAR
Protocol: as §1, §2

IMP-1 = target: T5, IMP-1 (Serratia marcescens, UniProt P52699); experiment: biochemical; conditions: read-out: IC50 against IMP-1; substrate cefazolin 40 µM, 30 mM Tris pH 7.0, 25 °C, 5 min pre-incubation, inhibitor up to 200 μM
T5 construct: made in house; host or cells: E. coli BL21 (DE3), plasmid pET26b-IMP-1
T5 sequence (P52699 19-246 limits assumed): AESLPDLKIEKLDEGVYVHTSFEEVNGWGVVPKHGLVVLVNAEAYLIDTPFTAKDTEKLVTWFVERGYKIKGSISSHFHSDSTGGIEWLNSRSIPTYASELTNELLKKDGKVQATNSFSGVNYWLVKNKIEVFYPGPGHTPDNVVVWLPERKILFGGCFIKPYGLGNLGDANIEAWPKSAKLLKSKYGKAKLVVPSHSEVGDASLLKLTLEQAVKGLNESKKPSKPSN
Protocol: as §1, §2

NDM-1 [3] = target: T3, NDM-1; experiment: Time-dependence inhibition experiment, residual activity; type: biochemical; conditions: 13 nM NDM-1 incubated with inhibitor at its IC50 for 8 h
[4] = tested on: Cc1nnc(SCC2=C(C(=O)O)N3C(=O)[C@@H](NC(=O)Cn4cnnn4)[C@H]3SC2)s1; experiment: purified protein, by the assay type; conditions: other: test conditions: 30 mM Tris pH 7.0, 25 °C
[5] = tested on: E. coli BL21 expressing NDM-1; experiment: MIC determination, broth micro-dilution, cefazolin with inhibitor; type: cell-based; conditions: E. coli BL21-NDM-1; 64 μg/mL inhibitor
Protocol: (§3) The minimum inhibitory concentration (MIC) of antibiotics, both alone and in the presence of enzyme inhibitors, was determined using the broth micro-dilution method. Single colonies of E. coli BL21, containing plasmid, pET26b-NDM-1, pET26b-ImiS or pET26b-L1 in lysogeny broth agar plates, were transferred into 5 mL of Mueller–Hinton (MH) liquid medium. Strains grown in MH medium to OD600 = 0.45 were used as inocula, after an 84-fold dilution to 1 × 10^5 CFU/mL in MH medium. […] Compound DCs as inhibitors were dissolved in MH media, to prepare 1024, 512, 256, 128, 64 and 32 μg/mL stock solutions. The prepared solutions with different antibiotic concentrations (50 μL) were diluted to 100 μL, with different concentrations of inhibitor solution (50 μL), then 100 μL inoculum was added sequentially into the prepared solutions, to yield a quarter of the initial concentrations. The mixtures were incubated at 37 °C for 16 h. […] Each measurement was performed in duplicate.
(§4) The ability of the dithiocarbamate derivatives to inhibit MβLs, and to restore the antimicrobial activity of antibiotics, was investigated by determining the minimum inhibitory concentrations (MICs) of existing antibiotics in the presence and absence of DC1-10, as previously reported. E. coli BL21 (DE3) containing plasmids pET26b-NDM-1, pET26b-ImiS and pET26b-L1 were used to assess these inhibitors.

[6] = tested on: E. coli BL21 expressing L1; experiment: as above; type: cell-based; conditions: 64 μg/mL inhibitor
Protocol: as §3, §4

[7] = tested on: mouse fibroblast cells (L-929); experiment: Cytotoxicity assay (MTT); type: cell-based; conditions: concentration as high as 250 μM, 48 h
Protocol: The cytotoxicity assays were performed to evaluate the toxicity of DC1, DC3, DC7 and DC9 in mouse fibroblast cells (L-929). The cells were seeded into 96-well plates at a cell density of 1.0 × 10^4 cells/well, in 100 μL of culture medium and maintained for 24 h. Then, the inhibitors with working concentrations (15.6, 31.25, 62.5, 125, 250, and 500 μM) were added to the 96-well plates and incubated for another 48 h. Three wells containing only cells were suspended in a mixture solution of 98 μL complete medium, as controls for cell viability without inhibitors. Three wells containing only the complete medium were used as blank controls. Following that, the medium was removed, and 100 μL of fresh culture medium and 10 μL MTT were added to each well. After incubation for 4 h, the trays were then vigorously shaken to solubilize the formed product, and the absorbance, at a wavelength of 490 nm, was read on a microplate reader and analyzed. All experiments were conducted in triplicate, and the data are expressed as mean ± standard deviation.
The potential toxicity of dthiocarbamates DC1, DC3, DC7 and DC9 as representatives was assayed using the mouse fibroblast cells (L929) treated with different concentrations of inhibitors (15.625, 31.25, 62.5, 125, 250 and 500 μM).

[8] = tested on: E. coli BL21 expressing ImiS; experiment: MIC determination, broth micro-dilution, imipenem with inhibitor; type: cell-based; conditions: 64 μg/mL inhibitor
Protocol: as §3, §4

| Molecule | melting point [°C] | IC50 (VIM-2) [µM] | IC50 (ImiS) [µM] | IC50 (NDM-1 [2]) [µM] | IC50 (L1) [µM] | IC50 (IMP-1) [µM] | further results |
| --- | --- | --- | --- | --- | --- | --- | --- |
| ImiS (Aeromonas veronii) | – | – | – | – | – | – | Km [1]: 52 µM |
| O=C(CCc1ccccc1)NNC(=S)[S][K] (as salt: potassium) [DC9, Potassium 2-(3-phenylpropanoyl)hydrazine-1-carbodithioate] | 170 to 171 | – | – | – | – | – | – |
| O=C(Cc1ccccc1)NNC(=S)[S][K] [DC2] | 150 to 151 | > 200 | 2.5 ± 0.1 | 5.64 ± 0.1 | 86.8 ± 1.6 | 166 ± 2.7 | – |
| O=C(NNC(=S)[S][K])c1cccc(Br)c1 [DC6] | > 300 | > 200 | 2.56 ± 0.05 | 15.2 ± 0.9 | 154 ± 3.2 | > 200 | – |
| O=C(NNC(=S)[S][K])c1ccccc1 [DC8] | – | – | – | – | 25.81 ± 0.12 | – | time dependence of NDM-1 inhibition (residual activity) (NDM-1 [3]): no time-dependent inhibition |
| VIM-2 (Escherichia coli) | – | – | – | – | – | – | Km [4]: 97 µM |
| O=C(NNC(=S)[S][K])c1ccc(O)cc1 [DC3] | 298 to 299 | 82.8 ± 1.1 | > 200 | 67.1 ± 0.9 | > 200 | > 200 | fold reduction in MIC of cefazolin [5]: no inhibitory effects; fold reduction in MIC of cefazolin [6]: no inhibitory effects; survival rate of L929 mouse cells [7]: higher than 80%; fold reduction in MIC of imipenem [8]: no inhibitory effects |
| IMP-1 (Serratia marcescens) | – | – | – | – | – | – | Km [4]: 73 µM |
| CC(C)(C)c1ccc(C(=O)NNC(=S)[S][K])cc1 [DC7] | > 300 | 63.5 ± 1.3 | > 200 | 0.52 ± 0.01 | 191 ± 4 | 96.4 ± 1.2 | survival rate of L929 mouse cells [7]: higher than 80% |
| L1 (Stenotrophomonas maltophilia) | – | – | – | – | – | – | Km [4]: 60 µM |
| NDM-1 (Klebsiella pneumoniae) | – | – | – | – | – | – | Km [4]: 15 µM |
| O=C(NNC(=S)[S][K])c1ccc(Cl)cc1 [DC5] | > 300 | > 200 | 129 ± 2.1 | 91.3 ± 1.7 | > 200 | > 200 | – |
| O=C(CCc1ccccc1)NNC(=S)[S][K] [DC9, Potassium 2-(3-phenylpropanoyl)hydrazine-1-carbodithioate] | – | 115 ± 3.1 | 156 ± 2.2 | 62.7 ± 1.05 | > 200 | 86.2 ± 0.9 | survival rate of L929 mouse cells [7]: higher than 80% |
| O=C(NNC(=S)[S][K])C(O)c1ccccc1 (centres unmarked) [DC10, Potassium 2-(2-hydroxy-2-phenylacetyl)hydrazine-1-carbodithioate] | – | – | – | – | – | – | time dependence of NDM-1 inhibition (residual activity) (NDM-1 [3]): no time-dependent inhibition |
| Nc1ccccc1C(=O)NNC(=S)[S][K] [DC4] | 233 to 234 | 139 ± 2.05 | 1.08 ± 0.05 | 11.4 ± 0.4 | 177 ± 2.8 | 103 ± 1.45 | – |
